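Test compounds were applied to cells in 96-well plates for 48 hours at 5 doses. At the GI50, growth is halved. Definition used: TGI = concentration required for complete inhibition of growth.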
What follows are molecules tested on MDA-MB-468 breast (assay: NCI tumour cell line growth inhibition, 48 h).

Row | SMILES | GI50 [µM] | TGI [µM]
1 | Cc1cc(/C=C2\SC(=Nc3ccccc3)N(C3CCCC3)C2=O)c(C)n1-c1ccc(Cl)cc1 | 48 | > 100
2 | O=C(Nc1ccc(Cl)cc1)Nc1ccc(Cl)c(Cl)c1 | 2.61 | 11.3
3 | CC1(C)C=CC[C@]2(C)[C@H]3CC[C@@H]4[C@H]5[C@H](C(=O)/C=C/c6cccnc6)CC[C@]5(CO)CC[C@@]4(C)[C@]3(C)CC[C@@H]12 | 1.34 | 2.88
4 | CCOC(=O)[C@@H](C)C[C@H](Cc1ccccc1)NC(=O)c1csc([C@@H](C[C@H](C(C)C)N(C)C(=O)[C@@H](NC(=O)[C@H]2C[C@H](O[Si](C)(C)C(C)(C)C)CCN2C)C(C)C)OC(C)=O)n1 | 0.0754 | 5.45
5 | CCOc1ccc(/C=C/C(=O)c2ccccc2)cc1 | 17.3 | 34.1
6 | O=C(Nc1cccc(C(F)(F)F)c1)c1cc(-c2ccc(F)cc2F)ccc1O | 2.22 | 6.84
7 | C#C[C@]1(O)CC[C@H]2[C@@H]3CC=C4c5sc(Nc6cc(Cl)ccn6)nc5CC[C@]4(C)[C@H]3CC[C@@]21C | 2.19 | 6.61
8 | COc1cc2nc(-c3ccc(C(F)(F)F)cc3)cc(OCCCN3CCOCC3)c2cc1OC | 1.24 | 5.71
9 | COc1ccc(/C=C/c2cc(OC)c(OC)c(OC)c2)cc1NC(=O)/C=C/c1ccc(F)cc1 | 1.78 | > 37.5
10 | C=CC(=O)N1CCCC(n2nc(-c3ccc(Oc4ccccc4)cc3)c3c(N)ncnc32)C1 (stereo not drawn) | 0.0319 | 0.6
11 | CC(C)c1ccc(Cc2cnc(NC(=O)c3cc(Br)cs3)s2)cc1 | 1.3 | 8.67
12 | COc1ccc2c(c1)sc1nc(-c3ccccc3)c(-c3ccsc3)n12 | 1.98 | 5.43
13 | O=C(CN1CCOCC1)NNc1ncnc2ccccc12 | 3.65 | 15.6
14 | COc1cc(-c2cnn(C)c2)ccc1Nc1ncc2ccnc(N[C@@H](C)C(C)(C)C)c2n1 | > 74.7 | > 100
15 | COc1cc(/C=C/c2cc(C(F)(F)F)[nH]c(=O)n2)ccc1OCc1ccccc1F | 2.97 | 14.4
16 | CCCCNc1nc(NC(C)(C)C)nc(NC(C)(C)C)n1 | 1.49 | 34.8
17 | COc1cccc(-c2nc3sccn3c2-c2ccnc(NCCNC(=O)Nc3cccc(C(F)(F)F)c3)n2)c1 | 2.63 | 10.4

Row | SMILES | GI50 [µM] | TGI [µM]
18 | Clc1nc(Oc2ccccc2)nc(-c2cn(-c3ccccc3)c3ccccc23)n1 | 2.86 | 9.94
19 | COc1c/c(=C2/C=c3ccccc3=N2)[nH]/c1=C/c1[nH]c(C)cc1C | 0.311 | 1.94
20 | Oc1ccc(Br)cc1Sc1cc(Br)ccc1O | 4.09 | 20.8
21 | C=CCn1c(C)nc2cc(Nc3nc(Nc4ccc5nc(C)n(CC=C)c5c4)c4ccccc4n3)ccc21 | 0.203 | 0.521
22 | CN1CCN(Cc2ccc(NC(=O)c3cncc(C#Cc4cnc(N)c5ccc(F)cc45)c3)cc2C(F)(F)F)CC1 | 1.77 | 6.67
23 | O=[N+]([O-])c1ccc2[nH]cc(-c3c4ccsc4cc4[nH]c5ccc([N+](=O)[O-])cc5c34)c2c1 | 0.805 | 2.47
24 | CC[N+](CC)=c1ccc2nc3c(cc(N)c4ccccc43)oc-2c1 | 0.0219 | 0.132
25 | COc1cc(-c2nc3ccc(C)cc3[nH]2)ccc1OCC(=O)N=Nc1c(O)[nH]c2ccccc12 | 1.75 | 3.34
26 | COC(=O)CCC/C=C\C[C@H]1C=CC(=O)/C1=C/C[C@@H](O)CCc1cccc(C(F)(F)F)c1 | 2.01 | 5.23
27 | CC1=CSC2=NC(c3ccc(Cl)c(Cl)c3)=CC(c3ccc(Cl)cc3)N12 (stereo not drawn) | > 100 | > 100
28 | Cc1ccc(C(=O)c2oc3ccc4c(C)cc(=O)oc4c3c2C)cc1 | 12.1 | > 100
29 | N#CCc1nc(C#N)c(N)o1 | > 100 | > 100
30 | CCCCCCC/C=C/[C@H]1O[C@]23C(=O)C[C@@]4(C[C@@H](OC5OC(CO)C(O)C(O)C5O)C[C@@H]4[C@H]2C=C1C)OC3=O (stereo partly drawn) | 4.58 | 13.5
31 | CC[N+](CCCCCCCCCC[N+](CC)(c1ccccn1)c1ccccn1)(c1ccccn1)c1ccccn1 | 0.206 | 1.43
32 | COc1cc(OC)c(/C=C/c2ccc3ccccc3[n+]2C)c(OC)c1 | 0.161 | 0.763
33 | CC1=CC[C@@H]2CC[C@]3(C)[C@H](CC[C@@H]4[C@@]5(C)CCCNC(C)(C)[C@@H]5CC[C@]43C)[C@H]2[C@@H]1C | 1.68 | 3.3
34 | Nc1c(C(=O)c2ccccc2)sc2nc(-c3cccs3)ccc12 | 0.2 | 0.91

Reference: PubChem BioAssay (NCI)
